In paper PMC7956174, “Probing the Role of the Conserved Arg174 in Formate Dehydrogenase by Chemical Modification and Site-Directed Mutagenesis” (Molecules, 2021) one finds Ki and Km data, which are given here for 3 molecules.

Read-outs that look alike come from different tables or passages of the source.

The target of data set [1] is T1, CbFDH (Candida boidinii formate dehydrogenase) ([Candida] boidinii, UniProt O13437).
T1 construct: gene FDH1; no tag told
T1 sequence (O13437 1-364): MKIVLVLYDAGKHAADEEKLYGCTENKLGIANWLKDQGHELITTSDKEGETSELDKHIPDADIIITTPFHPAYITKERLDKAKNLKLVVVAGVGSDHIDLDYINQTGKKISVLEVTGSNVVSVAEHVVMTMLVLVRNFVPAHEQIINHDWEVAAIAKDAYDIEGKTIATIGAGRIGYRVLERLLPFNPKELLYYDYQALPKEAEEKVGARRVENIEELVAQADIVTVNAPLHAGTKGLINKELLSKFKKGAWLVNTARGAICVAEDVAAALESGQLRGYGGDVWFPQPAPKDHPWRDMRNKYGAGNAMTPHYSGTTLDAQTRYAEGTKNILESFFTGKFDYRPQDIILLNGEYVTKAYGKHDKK
Put plainly: steady-state inhibition kinetics. It is filed as biochemical. An excerpt: steady-state inhibition kinetics on CbFDH (Candida boidinii formate dehydrogenase)

Substrate in the data set “steady-state kinetics”: O=CO
Nature of the data set: steady-state kinetics. It is filed as biochemical, [Candida] boidinii. The following applies: 0.1 M potassium phosphate pH 7.5, 25 °C, co-substrate NAD+. From the text: steady-state kinetics on CbFDH (Candida boidinii formate dehydrogenase)

As to `NC(=O)C1=CN([C@@H]2O[C@H](COP(=O)(O)OP(=O)(O)OC[C@H]3O[C@@H](n4cnc5c(N)ncnc54)[C@H](O)[C@@H]3O)[C@@H](O)[C@H]2O)C=CC1` [NADH], the inhibitory constant (Ki) (in general, the equilibrium dissociation constant of an inhibitor or competing ligand from its target) in data set [1] (read-out: Ki (mM) (NADH)) stood at 0.03 ± 0.005 mM.
In the case of `Nc1ncnc2c1ncn2[C@@H]1O[C@H](COP(=O)(O)O)[C@@H](O)[C@H]1O` [AMP], in data set [1] (read-out: Ki (mM) (AMP)), the Ki turned out to be 1.6 ± 0.1 mM.

B1: CbFDH (Candida boidinii formate dehydrogenase) ([Candida] boidinii) (protein)
chain: MKIVLVLYDAGKHAADEEKLYGCTENKLGIANWLKDQGHELITTSDKEGETSELDKHIPDADIIITTPFHPAYITKERLDKAKNLKLVVVAGVGSDHIDLDYINQTGKKISVLEVTGSNVVSVAEHVVMTMLVLVRNFVPAHEQIINHDWEVAAIAKDAYDIEGKTIATIGAGRIGYRVLERLLPFNPKELLYYDYQALPKEAEEKVGARRVENIEELVAQADIVTVNAPLHAGTKGLINKELLSKFKKGAWLVNTARGAICVAEDVAAALESGQLRGYGGDVWFPQPAPKDHPWRDMRNKYGAGNAMTPHYSGTTLDAQTRYAEGTKNILESFFTGKFDYRPQDIILLNGEYVTKAYGKHDKK
notes: no tag told
On to B1, for which the Michaelis-Menten constant (Km) (as a rule, the concentration of substrate that gives half-maximal velocity) in the data set “steady-state kinetics” came out at 2400 ± 100 µM.
